Assay results published in paper PMC9250970, “Role of Helical Structure in MBP Immunodominant Peptides for Efficient IgM Antibody Recognition in Multiple Sclerosis” (Frontiers in Chemistry, 2022).
Entries after “also recorded” stand apart in the source; their conditions may differ.

What was measured:
[1] = test system: anti-MBP protein IgM antibodies of MS serum; test: Inhibition (competitive) ELISA, MBP protein coated; assay type: binding, human; conditions: tested MS serum; peptides 1 and 2 as inhibitors
Excerpt: (§1) Fifteen Multiple Sclerosis (MS) patients were recruited in the Multiple Sclerosis Clinical Care and Research Centre, Department of Neurosciences, Reproductive Sciences and Odontostomatology, Federico II University (Naples, Italy). The relapsing-remitting MS (RR-MS) patients were previously diagnosed after a lumbar puncture, cerebrospinal fluid analysis, and MRI examination and fulfilled the established international diagnostic criteria ([Polman et al., 2011]; [Thompson et al., 2018]). The present study was conducted in accordance with the Declaration of Helsinki. The performed experimental protocols were approved by the Ethics Committee 2006 (protocol n. 120/06) and 2017 (protocol n. 160/17). […]
(§2) Nunc-Immuno MicroWell 96 well polystyrene ELISA plates (NUNC Maxisorb, product code M9410, Merck, Milan, Italy) were coated with a solution 10 μg/ml of the peptide antigens in pure carbonate buffer 0.05 M (pH 9.6) adding 100 μL/well, and microplates were incubated at 4°C overnight. […] Antibody affinity was measured following the competitive ELISA previously reported ([Real-Fernández et al., 2015]). Semi-saturating sera dilution was previously calculated in preliminary titration curves (absorbance 0.7). […] After approximately 30 min, the reaction was stopped with 1 M NaOH solution (50 μL/well), and the absorbance was read in a multichannel ELISA reader (Tecan Sunrise, Männedorf, Switzerland) at 405 nm. […]

[2] = test system: IgM antibodies in MS patient sera; test: Solid-phase ELISA (SP-ELISA), IgM; assay type: binding, human; conditions: peptide coated 10 μg/ml; for patients in whose serum IgM antibodies were detected: 1 out of 15 patients, sera 1:100; for IgM antibody detection (in words): fifteen MS patient sera 1:100, carbonate buffer pH 9.6, anti-human IgM 1:200, 405 nm
Excerpt: Fifteen Multiple Sclerosis (MS) patients were recruited in the Multiple Sclerosis Clinical Care and Research Centre, Department of Neurosciences, Reproductive Sciences and Odontostomatology, Federico II University (Naples, Italy). The relapsing-remitting MS (RR-MS) patients were previously diagnosed after a lumbar puncture, cerebrospinal fluid analysis, and MRI examination and fulfilled the established international diagnostic criteria ([Polman et al., 2011]; [Thompson et al., 2018]). The present study was conducted in accordance with the Declaration of Helsinki. The performed experimental protocols were approved by the Ethics Committee 2006 (protocol n. 120/06) and 2017 (protocol n. 160/17). Blood samplings were performed during the routine follow-up of patients, while the healthy control samplings were carried out during routine health checks or blood donations. Sera samples were obtained for diagnostic purposes from patients and healthy controls who had given their informed consent. Blood samples were centrifuged at 4,000 rpm for 10 min and sera supernatant was stored at -20°C until use.
Immunoassays were performed to evaluate IgM or IgG antibodies in sera by SP-ELISA. At this purpose, the synthetic antigens were coated on 96-well plates (NUNC Maxisorb, product code M9410, Merck, Milan, Italy). Coating conditions were set-up independently for each peptide and results are reported in the Supplementary Material. Polystyrene 96-well ELISA plates were coated with 100 μL/well of a 10 μg/ml solution of synthetic peptide antigens 1-6 diluted in pure carbonate buffer 0.05 M (pH 9.6), independently. After overnight incubation at 4°C, plates were washed (3×) using washing buffer. Nonspecific binding sites were blocked with 100 μL/well of fetal bovine serum buffer (10% FBS in washing buffer) at room temperature for 1 h. FBS buffer was removed, and plates were incubated overnight at 4°C with sera (diluted 1:100 in FBS buffer, 100 μL/well). After three washes, plates were treated with 100 μL/well of anti-human IgG or IgM alkaline phosphatase-conjugated specific antibodies diluted in FBS buffer 1:3,000 (IgG) and 1:200 (IgM) for all tested antigens. […] Colorimetric reaction was carried out adding 100 μl of substrate reaction solution (1 mg/ml pNPP, MgCl2 0.01 M in carbonate buffer, pH 9.6) to each well and plates were read at 405 nm using a TECAN plate reader. After 30 min, the reaction was stopped with 1 M NaOH solution (50 μL/well) and the absorbance was read in a multichannel ELISA reader (Tecan Sunrise, Männedorf, Switzerland) at 405 nm. Antibody titer values were calculated as (mean Abs of serum triplicate)—(mean Abs of blank triplicate) representing graphically the calculated mean values. […]

[3] = Circular dichroism (secondary structure); assay type: physicochemical; conditions: for % helix / effect of temperature on secondary structure / self-aggregation (in words) / secondary structure (in words) / effect of temperature on secondary structure (in words): CD; for % helix: H2O:TFE (50:50, v:v); for effect of temperature on secondary structure / self-aggregation (in words): PBS pH 7.4, 10 to 60°C in increments of 5°C; for effect of temperature on secondary structure (in words): Supplementary Figures S14, S15, various temperatures (10 to 60°C)
Procedure: CD spectra were recorded on JASCO J-815 with increasing temperature from 10 to 60°C in increments of 5°C between λ = 270 and 185 nm. The CD measurements were carried out in H2O, a mixture of H2O:TFE (50:50, v:v) and PBS (phosphate buffered saline, pH 7.4, containing: sodium chloride, potassium chloride, sodium phosphate dibasic, potassium phosphate monobasic). The spectra were registered with the following parameters: 0.2 nm resolution, 1.0 nm bandwidth, 20 mdeg sensitivity, 0.25 s response, 100 nm min^−1 scanning speed, 5 scans, and 0.02 cm cuvette path length. The CD spectra of solvents were recorded and subtracted from the raw data. The spectra were corrected by a baseline that was measured with the identical solvent in the same cell. The CD intensity is given as mean residue molar ellipticity (θ) [deg × cm^2 × dmol^−1].

[4] = NMR conformational analysis in DPC micelles; assay type: physicochemical; conditions: 1H NMR (chemical shift and NOE), 100 mM DPC-d38, 50 mM potassium phosphate pH 6.5, 10% D2O, 25°C; remaining regions random coil
Procedure: The samples for NMR spectroscopy were prepared by dissolving the appropriate amount of peptide in 50 mM potassium phosphate buffer (pH 6.5), 10% D2O, and 100 mM DPC-d38. NMR spectra were recorded on a Varian INOVA 600 MHz spectrometer equipped with a z-gradient 5 mm triple-resonance probe head. Spectra were recorded at a temperature of 25°C. The spectra were calibrated relative to TSP (0.00 ppm) as internal standard. One-dimensional (1D) NMR spectra were recorded in the Fourier mode with quadrature detection. The water signal was suppressed by gradient echo ([Hwang and Shaka, 1995]). 2D DQF-COSY ([Piantini et al., 1982]; [Marion and Wüthrich, 1983]), TOCSY ([Braunschweiler and Ernst, 1983]), and NOESY ([Jenner et al., 1979]) spectra were recorded in the phase-sensitive mode. Data block sizes were 2048 addresses in T2 and 512 equidistant T1 values. Before Fourier transformation, the time domain data matrices were multiplied by shifted sin2 functions in both dimensions. A mixing time of 70 ms was used for the TOCSY experiments. NOESY experiments were run with mixing time of 100 ms.

[5] = test system: IgG antibodies in MS patient sera; test: Solid-phase ELISA (SP-ELISA), IgG; assay type: binding; conditions: fifteen MS patient sera 1:100; peptide coated 10 μg/ml, carbonate buffer pH 9.6; anti-human IgG 1:3,000; 405 nm
Excerpt: as §1
Immunoassays were performed to evaluate IgM or IgG antibodies in sera by SP-ELISA. […] Colorimetric reaction was carried out adding 100 μl of substrate reaction solution (1 mg/ml pNPP, MgCl2 0.01 M in carbonate buffer, pH 9.6) to each well and plates were read at 405 nm using a TECAN plate reader. After 30 min, the reaction was stopped with 1 M NaOH solution (50 μL/well) and the absorbance was read in a multichannel ELISA reader (Tecan Sunrise, Männedorf, Switzerland) at 405 nm. Antibody titer values were calculated as (mean Abs of serum triplicate)—(mean Abs of blank triplicate) representing graphically the calculated mean values. […]

[6] = test system: anti-MBP (76–116) IgM antibodies of MS serum; test: Inhibition (competitive) ELISA, MBP (76–116) (2) coated; assay type: binding, human
Excerpt: as §1, §2

Sequence	inhibition of IgM antibody binding to MBP protein (in words) [1]	patients in whose serum IgM antibodies were detected [2] [%]	IgM antibody detection (in words) [2]	% helix ([3]; 25°C) [%]	effect of temperature on secondary structure / self-aggregation (in words) [3]	secondary structure (in words) ([3]; PBS pH 7.4, 25°C)	effect of temperature on secondary structure (in words) [3]	secondary structure (in words) ([3]; water, 25°C)	minimum of CD spectrum attributed to beta structures (aggregation) ([3]; PBS pH 7.4, increasing temperature, temperature-induced self-aggregation)	helical structure, residues [4]	IgG antibody reactivity (in words) [5]	affinity of IgMs in competitive ELISA, fold greater than longer analogue MBP (76–116) (2) ([6]; competitive ELISA, MS serum, compared to the longer analogue) [fold]	antibody affinity/recognition in competitive experiment (in words) ([6]; solution conditions of the competitive experiments, peptide 1 vs. peptide 2)
SQHGRTQDENPVVHFFKNIVTPRTPPPSQGKGRGLSLSRFS [MBP (76–116) (2), elongated synthetic peptide, fragment 76–116 of myelin basic protein]	able to inhibit IgM antibody binding to MBP protein in the tested MS serum with comparable IC50	7	IgM antibodies were detected in one representative patient serum; also recorded: able to detect a high, stable, and reproducible IgM antibody titer	3	shift of the minimum to lower wavelength and a strong decrease of the signal intensity; also recorded: temperature-induced peptide self-aggregation, likely in beta structures	random coil structures	no spectral differences of secondary peptide structure at various temperatures	randomly structured in water solution	about 205 nm	87–96			
TPPPSQGK [MBP (99–106) (6)]											nonspecific IgG antibody reactivity		
TQDENPVVHFFKNIVTPRTPPPSQGK [MBP (81–106) (1), synthetic peptide, fragment 81–106 of myelin basic protein, covering the immunodominant region]	able to inhibit IgM antibody binding to MBP protein in the tested MS serum with comparable IC50	7	slightly recognized IgGs and IgMs	14	no differences of secondary structure at various temperatures		no spectral differences of secondary peptide structure at various temperatures	randomly structured in water solution		87–96	To a lesser extent, also against peptide MBP (81–106) (1); also recorded: slightly recognized IgGs and IgMs	4	recognized more efficiently by antibodies in the solution conditions of the competitive experiments
